Test results taken from patent US20230085307A1, “PYRIDAZINONE COMPOUND AND HERBICIDE” (NISSAN CHEMICAL CORPORATION, priority 2019, published 2023).

Assays:
southern crabgrass [1] = experiment: Test Example 5: herbicidal effect by foliage application, plastic box (Table 20, symbol F); format: in vivo, southern crabgrass (Digitaria ciliaris); conditions: foliage application, 320 g/ha, three weeks after application
In short: (§1)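 Foliar spray test: emulsion formulation diluted in water to a set application rate, sprayed onto 14-day-old plants raised in diluvial soil at 25° C to 30° C under glass. Both herbicidal effect and crop effect rated visually three weeks later.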

persian speedwell [2] = experiment: Test Example 4: herbicidal effect by soil treatment (Table 19, symbol R); format: in vivo, Persian speedwell (Veronica persica); conditions: amount of applied herbicide 320 g/ha
In short: (§2)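 Herbicidal effect was rated 3 weeks after treatment, using the scoring criteria of an earlier test. The compound, formulated as an emulsion and diluted in water to a set herbicide amount, had been sprayed uniformly on soil over freshly sown seeds. Growth took place in a greenhouse at 25° C. to 30° C.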

Japanese bulrush = experiment: Test Example 1: herbicidal activity, application before weed generation under submerged conditions (Table 16, symbol B); format: in vivo, Japanese bulrush (Schoenoplectus juncoides); conditions: amount of applied herbicide 320 g/ha
In short: (§3)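 Alluvial soil was flooded to 4 cm depth, weed seeds were sown mixed and 2.5-leaf rice seedlings were transplanted. On sowing day, the compound's emulsion, diluted in water to a set dose, was applied to the water surface. Plants grew at 25–30 °C and were scored 0–5 after three weeks.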

velvetleaf [3] = experiment: Test Example 5: herbicidal effect by foliage application, plastic box (Table 20, symbol M); format: in vivo, velvetleaf (Abutilon theophrasti); conditions: foliage application, 320 g/ha, three weeks after application
In short: as §1

barnyard grass [4] = experiment: Test Example 4: herbicidal effect by soil treatment (Table 19, symbol H); format: in vivo, barnyard grass (Echinochloa crus-galli); conditions: amount of applied herbicide 320 g/ha
In short: as §2

velvetleaf [5] = experiment: Test Example 4: herbicidal effect by soil treatment (Table 19, symbol M); format: in vivo, velvetleaf (Abutilon theophrasti); conditions: amount of applied herbicide 320 g/ha
In short: as §2

wild oat [6] = experiment: Test Example 4: herbicidal effect by soil treatment (Table 19, symbol I); format: in vivo, wild oat (Avena fatua); conditions: amount of applied herbicide 320 g/ha
In short: as §2

rice flat sedge = experiment: Test Example 3: herbicidal effect by foliage application, Wagner pot (Table 18, symbol E); format: in vivo, rice flat sedge (Cyperus iria); conditions: 320 g/ha
In short: (§4)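 Plants were sown in alluvial soil held under 0.1–0.5 cm standing water and grown 14 days in a greenhouse at 25–30 °C. An emulsifiable formulation, water-diluted to the set dose, was then sprayed onto the foliage, and effects were scored three weeks later using previously defined criteria.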

green foxtail [7] = experiment: Test Example 5: herbicidal effect by foliage application, plastic box (Table 20, symbol G); format: in vivo, green foxtail (Setaria viridis); conditions: foliage application, 320 g/ha, three weeks after application
In short: as §1

lambsquarters [8] = experiment: Test Example 4: herbicidal effect by soil treatment (Table 19, symbol O); format: in vivo, lambsquarters (Chenopodium album); conditions: amount of applied herbicide 320 g/ha
In short: as §2

Italian ryegrass [9] = experiment: Test Example 4: herbicidal effect by soil treatment (Table 19, symbol K); format: in vivo, Italian ryegrass (Lolium multiflorum); conditions: amount of applied herbicide 320 g/ha
In short: as §2

blackgrass [10] = experiment: Test Example 4: herbicidal effect by soil treatment (Table 19, symbol J); format: in vivo, blackgrass (Alopecurus myosuroides); conditions: amount of applied herbicide 320 g/ha
In short: as §2

windgrass [11] = experiment: Test Example 5: herbicidal effect by foliage application, plastic box (Table 20, symbol L); format: in vivo, windgrass (Apera spica-venti); conditions: foliage application, 320 g/ha, three weeks after application
In short: as §1

Italian ryegrass [12] = experiment: Test Example 5: herbicidal effect by foliage application, plastic box (Table 20, symbol K); format: in vivo, Italian ryegrass (Lolium multiflorum); conditions: foliage application, 320 g/ha, three weeks after application
In short: as §1

chickweed = experiment: Test Example 4: herbicidal effect by soil treatment (Table 19, symbol P); format: in vivo, common chickweed (Stellaria media); conditions: amount of applied herbicide 320 g/ha
In short: as §2

persian speedwell [13] = experiment: Test Example 5: herbicidal effect by foliage application, plastic box (Table 20, symbol R); format: in vivo, Persian speedwell (Veronica persica); conditions: foliage application, 320 g/ha, three weeks after application
In short: as §1

late watergrass = experiment: Test Example 1: herbicidal activity, application before weed generation under submerged conditions (Table 16, symbol A); format: in vivo, late watergrass (Echinochloa oryzicola); conditions: amount of applied herbicide 320 g/ha
In short: as §3

Chinese sprangletop = experiment: Test Example 3: herbicidal effect by foliage application, Wagner pot (Table 18, symbol D); format: in vivo, chinese sprangletop (Leptochloa chinensis); conditions: 320 g/ha
In short: as §4

southern crabgrass [14] = experiment: Test Example 4: herbicidal effect by soil treatment (Table 19, symbol F); format: in vivo, southern crabgrass (Digitaria ciliaris); conditions: amount of applied herbicide 320 g/ha
In short: as §2

lambsquarters [15] = experiment: Test Example 5: herbicidal effect by foliage application, plastic box (Table 20, symbol O); format: in vivo, lambsquarters (Chenopodium album); conditions: foliage application, 320 g/ha, three weeks after application
In short: as §1

redroot pigweed = experiment: Test Example 4: herbicidal effect by soil treatment (Table 19, symbol N); format: in vivo, redroot pigweed (Amaranthus retroflexus); conditions: amount of applied herbicide 320 g/ha
In short: as §2

green foxtail [16] = experiment: Test Example 4: herbicidal effect by soil treatment (Table 19, symbol G); format: in vivo, green foxtail (Setaria viridis); conditions: amount of applied herbicide 320 g/ha
In short: as §2

blackgrass [17] = experiment: Test Example 5: herbicidal effect by foliage application, plastic box (Table 20, symbol J); format: in vivo, blackgrass (Alopecurus myosuroides); conditions: foliage application, 320 g/ha, three weeks after application
In short: as §1

barnyard grass [18] = experiment: Test Example 3: herbicidal effect by foliage application, Wagner pot (Table 18, symbol H); format: in vivo, barnyard grass (Echinochloa crus-galli); conditions: 320 g/ha
In short: as §4

barnyard grass [19] = experiment: Test Example 5: herbicidal effect by foliage application, plastic box (Table 20, symbol H); format: in vivo, barnyard grass (Echinochloa crus-galli); conditions: foliage application, 320 g/ha, three weeks after application
In short: as §1

windgrass [20] = experiment: Test Example 4: herbicidal effect by soil treatment (Table 19, symbol L); format: in vivo, windgrass (Apera spica-venti); conditions: amount of applied herbicide 320 g/ha
In short: as §2

oval-leafed pondweed = experiment: Test Example 1: herbicidal activity, application before weed generation under submerged conditions (Table 16, symbol C); format: in vivo, oval-leafed pondweed (Monochoria vaginalis); conditions: amount of applied herbicide 320 g/ha
In short: as §3

wild oat [21] = experiment: Test Example 5: herbicidal effect by foliage application, plastic box (Table 20, symbol I); format: in vivo, wild oat (Avena fatua); conditions: foliage application, 320 g/ha, three weeks after application
In short: as §1

## CCCC(=O)Oc1c(C)nn(C)c(=O)c1-c1c(-c2ccccc2OCC)sc2cc(OC)c(Cl)cc12 [5-073]
Southern crabgrass [1]
  herbicidal effect on southern crabgrass (F): 5 (Herbicidal rate of 90% or more (almost completely withered))
Persian speedwell [2]
  R: persian speedwell, herbicidal effect grade: 0 (Herbicidal rate of 5% or less (almost no effect))
Japanese bulrush
  Herbicidal effect, B: Japanese bulrush: 4 (Herbicidal rate of 70% or more and less than 90%)
Velvetleaf [3]
  herbicidal effect on velvetleaf (M): 4 (Herbicidal rate of 70% or more and less than 90%)
Barnyard grass [4]
  H: barnyard grass, herbicidal effect grade: 0 (Herbicidal rate of 5% or less (almost no effect))
Velvetleaf [5]
  M: velvetleaf, herbicidal effect grade: 0 (Herbicidal rate of 5% or less (almost no effect))
Wild oat [6]
  I: wild oat, herbicidal effect grade: 0 (Herbicidal rate of 5% or less (almost no effect))
Rice flat sedge
  herbicidal effect on rice flat sedge (E): 0 (Herbicidal rate of 5% or less (almost no effect))
Green foxtail [7]
  herbicidal effect on green foxtail (G): 5 (Herbicidal rate of 90% or more (almost completely withered))
Lambsquarters [8]
  O: lambsquarters, herbicidal effect grade: 0 (Herbicidal rate of 5% or less (almost no effect))
Italian ryegrass [9]
  K: Italian ryegrass, herbicidal effect grade: 0 (Herbicidal rate of 5% or less (almost no effect))
Blackgrass [10]
  J: blackgrass, herbicidal effect grade: 0 (Herbicidal rate of 5% or less (almost no effect))
Windgrass [11]
  herbicidal effect on windgrass (L): 3 (Herbicidal rate of 40% or more and less than 70%)
Italian ryegrass [12]
  herbicidal effect on Italian ryegrass (K): 0 (Herbicidal rate of 5% or less (almost no effect))
chickweed
  P: chickweed, herbicidal effect grade: 0 (Herbicidal rate of 5% or less (almost no effect))
Persian speedwell [13]
  herbicidal effect on persian speedwell (R): 0 (Herbicidal rate of 5% or less (almost no effect))
Late watergrass
  Herbicidal effect, A: late watergrass: 5 (Herbicidal rate of 90% or more (almost completely withered))
Chinese sprangletop
  herbicidal effect on Chinese sprangletop (D): 0 (Herbicidal rate of 5% or less (almost no effect))
Southern crabgrass [14]
  F: southern crabgrass, herbicidal effect grade: 0 (Herbicidal rate of 5% or less (almost no effect))
Lambsquarters [15]
  herbicidal effect on lambsquarters (O): 4 (Herbicidal rate of 70% or more and less than 90%)
Redroot pigweed
  N: redroot pigweed, herbicidal effect grade: 1 (Herbicidal rate of 5% or more and less than 20%)
Green foxtail [16]
  G: green foxtail, herbicidal effect grade: 2 (Herbicidal rate of 20% or more and less than 40%)
Blackgrass [17]
  herbicidal effect on blackgrass (J): 0 (Herbicidal rate of 5% or less (almost no effect))
Barnyard grass [18]
  herbicidal effect on barnyard grass (H): 5 (Herbicidal rate of 90% or more (almost completely withered))
Barnyard grass [19]
  herbicidal effect on barnyard grass (H): 5 (Herbicidal rate of 90% or more (almost completely withered))
Windgrass [20]
  L: windgrass, herbicidal effect grade: 0 (Herbicidal rate of 5% or less (almost no effect))
oval-leafed pondweed
  Herbicidal effect, C: oval-leafed pondweed: 4 (Herbicidal rate of 70% or more and less than 90%)
Wild oat [21]
  herbicidal effect on wild oat (I): 0 (Herbicidal rate of 5% or less (almost no effect))
